Test results: US11613556B2, “Oxysterols and methods of use thereof” (Sage Therapeutics, Inc., priority 2016, dated 2023)
Like-named read-outs stand apart in the source and are kept apart here.

How the values were obtained:
[1] = molecular target: GluN2B glutamate receptors expressed in mammalian cells (Homo sapiens (Human), UniProt Q05586+Q13224); experiment: Whole-cell patch clamp of mammalian cells (Ionworks Barracuda), positive allosteric modulation, GluN2B; type: cell-based; conditions: for Emax: read-out: GluN2B PCA EMax (%)
Chain of GluN2B glutamate receptors expressed in mammalian cells (Q13224 27-1484, other chains not shown): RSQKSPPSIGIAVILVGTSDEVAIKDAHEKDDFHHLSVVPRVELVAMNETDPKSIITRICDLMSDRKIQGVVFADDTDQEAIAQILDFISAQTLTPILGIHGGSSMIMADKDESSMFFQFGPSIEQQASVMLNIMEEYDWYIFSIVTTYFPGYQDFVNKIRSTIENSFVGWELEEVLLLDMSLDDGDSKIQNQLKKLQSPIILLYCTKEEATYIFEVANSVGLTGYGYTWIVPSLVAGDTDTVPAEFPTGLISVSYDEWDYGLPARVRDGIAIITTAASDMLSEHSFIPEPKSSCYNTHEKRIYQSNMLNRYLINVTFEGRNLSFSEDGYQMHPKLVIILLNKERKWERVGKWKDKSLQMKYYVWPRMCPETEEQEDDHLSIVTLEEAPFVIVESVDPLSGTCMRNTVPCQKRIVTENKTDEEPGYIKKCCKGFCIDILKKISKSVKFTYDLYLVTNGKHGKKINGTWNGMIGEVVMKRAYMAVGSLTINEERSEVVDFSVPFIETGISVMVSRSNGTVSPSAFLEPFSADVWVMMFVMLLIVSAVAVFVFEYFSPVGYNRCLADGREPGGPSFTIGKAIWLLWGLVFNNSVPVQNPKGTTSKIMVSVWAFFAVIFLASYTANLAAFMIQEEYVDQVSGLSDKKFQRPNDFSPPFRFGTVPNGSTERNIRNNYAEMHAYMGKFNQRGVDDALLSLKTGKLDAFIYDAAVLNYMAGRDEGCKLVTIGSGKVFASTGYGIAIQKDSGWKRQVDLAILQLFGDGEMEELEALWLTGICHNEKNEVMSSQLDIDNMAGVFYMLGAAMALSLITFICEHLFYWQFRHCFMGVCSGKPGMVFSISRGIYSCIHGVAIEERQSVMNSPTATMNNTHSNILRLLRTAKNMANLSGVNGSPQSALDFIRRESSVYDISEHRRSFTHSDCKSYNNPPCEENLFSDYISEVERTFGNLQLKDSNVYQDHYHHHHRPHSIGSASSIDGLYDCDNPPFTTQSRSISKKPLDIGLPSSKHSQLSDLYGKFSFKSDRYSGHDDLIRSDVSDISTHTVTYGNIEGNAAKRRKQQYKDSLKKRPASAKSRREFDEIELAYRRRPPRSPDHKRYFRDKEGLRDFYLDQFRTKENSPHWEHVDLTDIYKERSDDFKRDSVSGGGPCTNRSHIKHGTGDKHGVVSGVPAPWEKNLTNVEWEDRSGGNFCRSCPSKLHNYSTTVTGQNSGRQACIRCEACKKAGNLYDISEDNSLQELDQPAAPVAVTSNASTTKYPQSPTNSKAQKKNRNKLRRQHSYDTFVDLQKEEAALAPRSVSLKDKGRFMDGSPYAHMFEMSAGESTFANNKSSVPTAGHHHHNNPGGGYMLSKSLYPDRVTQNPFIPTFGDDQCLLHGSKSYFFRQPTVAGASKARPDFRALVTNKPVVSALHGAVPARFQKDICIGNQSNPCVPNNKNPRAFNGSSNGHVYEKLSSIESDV
Protocol: (§1) NMDA potentiation in mammalian cells which expressed NMDA receptors was assessed using the automatic patch-clamp system can be used determine the NAM activity of compounds as described below. An whole cell patch-clamp system can be used determine the PAM activity of compounds as described below.
(§2) The measurements were performed using Ion Works Barracuda platform following this procedure:
(§3) Electrophysiological Procedures: • a) Intracellular solution (mM): 50 mM CsCl, 90 mM CsF, 2 mM MgCl2, 5 mM EGTA, 10 mM HEPES. Adjust to pH 7.2 with CsOH. • b) Extracellular solution, HB-PS (composition in mM): NaCl, 137; KCl, 1.0; CaCl2, 5; HEPES, 10; Glucose, 10; pH adjusted to 7.4 with NaOH (refrigerated until use). • c) Holding potential: −70 mV, potential during agonist/PAM application: −40 mV.
(§4) Recording Procedure: • a) Extracellular buffer will be loaded into the PPC plate wells (11 μL per well). Cell suspension will be pipetted into the wells (9 μL per well) of the PPC planar electrode. • b) Whole-cell recording configuration will be established via patch perforation with membrane currents recorded by on-board patch clamp amplifiers. • c) Two recordings (scans) will be performed. First, during pre-application of test article alone (duration of pre-application—5 min) and second, during test articles and agonist (EC20 L-glutamate and 30 μM glycine) co-application to detect positive modulatory effects of the test article.
(§5) Test Article Administration: The first pre-application will consist of the addition of 20 μL of 2× concentrated test article solution and, second, of 20 μL of 1× concentrated test article and agonist at 10 μL/s (2 second total application time).
(§6) Potentiating Effect of Positive Allosteric Modulators (PAM) on the Channel
(§7) The maximal amplitude of the evoked currents are measured and defined as Peak Current Amplitude (PCA).

[2] = molecular target: GluN1/GluN2A glutamate receptors (human GRIN1/GRIN2A) expressed in HEK293 cells (Homo sapiens (Human), UniProt Q05586+Q12879); experiment: Whole-cell patch clamp of mammalian cells (Ionworks Barracuda), positive allosteric modulation, GluN1/GluN2A; type: cell-based; conditions: for Emax: read-out: GluN2A PCA EMax (%)
Chain of GluN1/GluN2A glutamate receptors (human GRIN1/GRIN2A) expressed in HEK293 cells (Q12879 whole entry, looked up, other chains not shown): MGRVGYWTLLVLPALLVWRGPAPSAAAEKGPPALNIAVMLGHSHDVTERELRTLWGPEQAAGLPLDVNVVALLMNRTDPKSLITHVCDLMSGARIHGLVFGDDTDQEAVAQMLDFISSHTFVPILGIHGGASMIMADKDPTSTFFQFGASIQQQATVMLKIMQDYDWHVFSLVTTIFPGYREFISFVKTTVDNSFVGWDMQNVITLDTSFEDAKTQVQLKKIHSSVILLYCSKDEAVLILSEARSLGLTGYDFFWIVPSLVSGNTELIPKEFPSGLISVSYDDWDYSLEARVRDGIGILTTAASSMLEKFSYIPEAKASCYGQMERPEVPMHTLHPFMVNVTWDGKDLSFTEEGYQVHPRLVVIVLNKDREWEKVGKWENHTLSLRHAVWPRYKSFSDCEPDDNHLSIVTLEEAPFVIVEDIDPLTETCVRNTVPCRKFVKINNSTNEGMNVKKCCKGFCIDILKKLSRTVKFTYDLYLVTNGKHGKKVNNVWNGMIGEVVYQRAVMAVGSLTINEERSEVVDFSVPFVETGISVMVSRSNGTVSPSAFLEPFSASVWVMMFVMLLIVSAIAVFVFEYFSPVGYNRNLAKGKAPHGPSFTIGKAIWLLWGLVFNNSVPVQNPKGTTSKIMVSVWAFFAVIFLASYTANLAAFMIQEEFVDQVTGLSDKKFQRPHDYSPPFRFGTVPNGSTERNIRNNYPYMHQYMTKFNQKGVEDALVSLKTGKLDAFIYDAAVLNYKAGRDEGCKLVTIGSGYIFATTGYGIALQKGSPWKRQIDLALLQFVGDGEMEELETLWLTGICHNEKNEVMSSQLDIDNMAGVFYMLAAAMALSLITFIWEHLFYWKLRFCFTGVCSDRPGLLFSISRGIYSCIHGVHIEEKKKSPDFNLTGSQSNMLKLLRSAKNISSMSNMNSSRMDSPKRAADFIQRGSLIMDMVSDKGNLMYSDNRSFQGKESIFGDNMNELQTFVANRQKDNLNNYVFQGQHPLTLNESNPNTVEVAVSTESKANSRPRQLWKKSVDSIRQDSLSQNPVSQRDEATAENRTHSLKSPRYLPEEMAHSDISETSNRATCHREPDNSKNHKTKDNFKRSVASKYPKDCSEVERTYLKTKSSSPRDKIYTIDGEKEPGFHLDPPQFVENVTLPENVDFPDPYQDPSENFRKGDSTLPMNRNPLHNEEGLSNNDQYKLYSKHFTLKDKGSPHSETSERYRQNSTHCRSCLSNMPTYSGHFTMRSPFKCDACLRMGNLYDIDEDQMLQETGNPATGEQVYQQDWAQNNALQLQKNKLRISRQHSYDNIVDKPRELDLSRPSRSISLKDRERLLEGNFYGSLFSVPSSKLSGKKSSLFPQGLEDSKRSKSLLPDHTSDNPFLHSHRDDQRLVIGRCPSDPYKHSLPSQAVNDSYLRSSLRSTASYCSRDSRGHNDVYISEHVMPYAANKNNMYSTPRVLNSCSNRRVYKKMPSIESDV
Protocol: as §1, §2, §3, §4, §5, §6, §7

[3] = peak current amplitude, co-application with EC20 L-glutamate and 30 μM glycine, read-out: GluN2B PCA EC50
[4] = peak current amplitude, co-application with EC20 L-glutamate and 30 μM glycine
[5] = peak current amplitude, co-application with EC20 L-glutamate and 30 μM glycine, HEK293
[6] = peak current amplitude, co-application with EC20 L-glutamate and 30 μM glycine, HEK293, read-out: GluN2A PCA EC50

Structure (SMILES) | EC50 [1, 3] [nM] | Emax [1, 4] [%] | EC50 [2] [nM] | Emax [2, 5] [%] | EC50 [1] [nM] | Emax [1] [%] | EC50 [2, 6] [nM]
CC[C@]1(O)CC[C@H]2C(=CC[C@@H]3[C@@H]2CC[C@]2(C)[C@@H]([C@H](C)[C@H](O)CCC(C)C)CC[C@@H]32)C1 [Compound 3, (3S,8R,9S,10R,13S,14S,17R)-3-ethyl-17-((2S,3R)-3-hydroxy-6-methylheptan-2-yl)-13-methyl-2,3,4,7,8,9,10,11,12,13,14,15,16,17-tetradecahydro-1H-cyclopenta[a]phenanthren-3-ol] | > 1000 | < 100 | > 1000 | < 100 | – | – | –
C[C@H]([C@H](O)C[C@H](O)c1ccccc1)[C@H]1CC[C@H]2[C@@H]3CC[C@H]4C[C@](O)(C(F)(F)F)CC[C@]4(C)[C@H]3CC[C@]12C [Compound 13, (1S,3R,4S)-4-((3S,5S,8R,9S,10S,13S,14S,17R)-3-hydroxy-10,13-dimethyl-3-(trifluoromethyl)hexadecahydro-1H-cyclopenta[a]phenanthren-17-yl)-1-phenylpentane-1,3-diol] | – | – | – | < 100 | 1 to 100 | 100 to 500 | 1 to 100
CC[C@]1(O)CC[C@@]2(C)[C@@H](CC[C@@H]3[C@@H]2CC[C@]2(C)[C@@H]([C@H](C)[C@H](O)CCC(C)C)CC[C@@H]32)C1 [Compound 24, (3S,5S,8R,9S,10S,13S,14S,17R)-3-ethyl-17-((2S,3R)-3-hydroxy-6-methylheptan-2-yl)-10,13-dimethylhexadecahydro-1H-cyclopenta[a]phenanthren-3-ol] | – | – | – | < 100 | > 1000 | < 100 | > 1000
C[C@@H]([C@H]1CC[C@H]2[C@@H]3CC[C@H]4C[C@](O)(C(F)(F)F)CC[C@]4(C)[C@H]3CC[C@]12C)[C@@H](O)C[C@H](O)c1ccccc1 [Compound 25, (1S,3S,4S)-4-((3S,5S,8R,9S,10S,13S,14S,17R)-3-hydroxy-10,13-dimethyl-3-(trifluoromethyl)hexadecahydro-1H-cyclopenta[a]phenanthren-17-yl)-1-phenylpentane-1,3-diol] | – | – | – | < 100 | > 1000 | < 100 | > 1000
CC[C@]1(O)CC[C@H]2[C@@H](CC[C@@H]3[C@@H]2CC[C@]2(C)[C@@H]([C@H](C)[C@@H](O)CCC(C)C)CC[C@@H]32)C1 [Compound 28, (3S,5S,8R,9R,10S,13S,14S,17R)-3-ethyl-17-((2S,3S)-3-hydroxy-6-methylheptan-2-yl)-13-methylhexadecahydro-1H-cyclopenta[a]phenanthren-3-ol] | > 1000 | 100 to 500 | > 1000 | < 100 | – | – | –
CC[C@]1(O)CC[C@@]2(C)[C@@H](CC[C@@H]3[C@@H]2CC[C@]2(C)[C@@H]([C@H](C)[C@@H](O)CCC(C)C)CC[C@@H]32)C1 [Compound 29, (3S,5S,8R,9S,10S,13S,14S,17R)-3-ethyl-17-((2S,3S)-3-hydroxy-6-methylheptan-2-yl)-10,13-dimethylhexadecahydro-1H-cyclopenta[a]phenanthren-3-ol] | – | – | – | < 100 | > 1000 | < 100 | > 1000
CC(C)CC[C@@H](O)[C@@H](C)[C@H]1CC[C@H]2[C@@H]3CC=C4C[C@@](C)(O)CC[C@]4(C)[C@H]3CC[C@]12C [Compound 30, (3S,8S,9S,10R,13S,14S,17R)-17-((2S,3R)-3-hydroxy-6-methylheptan-2-yl)-3,10,13-trimethyl-2,3,4,7,8,9,10,11,12,13,14,15,16,17-tetradecahydro-1H-cyclopenta[a]phenanthren-3-ol] | > 1000 | 100 to 500 | > 1000 | 100 to 500 | – | – | –
C[C@H]([C@H](O)C[C@@H](O)c1ccccc1)[C@H]1CC[C@H]2[C@@H]3CC[C@H]4C[C@](O)(C(F)(F)F)CC[C@]4(C)[C@H]3CC[C@]12C [Compound 31, (1R,3R,4S)-4-((3S,5S,8R,9S,10S,13S,14S,17R)-3-hydroxy-10,13-dimethyl-3-(trifluoromethyl)hexadecahydro-1H-cyclopenta[a]phenanthren-17-yl)-1-phenylpentane-1,3-diol] | – | – | – | 100 to 500 | 100 to 1000 | 100 to 500 | 1 to 100
CC(C)CC[C@@H](O)[C@@H](C)[C@H]1CC[C@H]2[C@@H]3CC[C@@H]4C[C@@](C)(O)CC[C@]4(C)[C@H]3CC[C@]12C [Compound 36, (3S,5R,8R,9S,10S,13S,14S,17R)-17-((2S,3R)-3-hydroxy-6-methylheptan-2-yl)-3,10,13-trimethylhexadecahydro-1H-cyclopenta[a]phenanthren-3-ol] | > 1000 | < 100 | > 1000 | < 100 | – | – | –
CC[C@]1(O)CC[C@H]2C(=CC[C@@H]3[C@@H]2CC[C@]2(C)[C@@H]([C@H](C)[C@@H](O)CCC(C)C)CC[C@@H]32)C1 [Compound 44, (3S,8R,9S,10R,13S,14S,17R)-3-ethyl-17-((2S,3S)-3-hydroxy-6-methylheptan-2-yl)-13-methyl-2,3,4,7,8,9,10,11,12,13,14,15,16,17-tetradecahydro-1H-cyclopenta[a]phenanthren-3-ol] | > 1000 | < 100 | > 1000 | < 100 | – | – | –
CC(C)CC[C@@H](O)[C@@H](C)[C@H]1CC[C@H]2[C@@H]3CC[C@H]4C[C@@](C)(O)CC[C@]4(C)[C@H]3CC[C@]12C [Compound 47, (3S,5S,8R,9S,10S,13S,14S,17R)-17-((2S,3R)-3-hydroxy-6-methylheptan-2-yl)-3,10,13-trimethylhexadecahydro-1H-cyclopenta[a]phenanthren-3-ol] | > 1000 | < 100 | > 1000 | < 100 | – | – | –
CC[C@]1(O)CC[C@@]2(C)C(=CC[C@H]3[C@@H]4CC[C@H]([C@H](C)[C@@H](O)CC5CCC(C)(C)CC5)[C@@]4(C)CC[C@@H]32)C1 [Compound 49, (3S,8S,9S,10R,13S,14S,17R)-17-((2S,3S)-4-(4,4-dimethylcyclohexyl)-3-hydroxybutan-2-yl)-3-ethyl-10,13-dimethyl-2,3,4,7,8,9,10,11,12,13,14,15,16,17-tetradecahydro-1H-cyclopenta[a]phenanthren-3-ol] | > 1000 | < 100 | > 1000 | < 100 | – | – | –
CC[C@]1(O)CC[C@@]2(C)C(=CC[C@H]3[C@@H]4CC[C@H]([C@H](C)[C@H](O)CCC(C)C)[C@@]4(C)CC[C@@H]32)C1 [Compound 52, (3S,8S,9S,10R,13S,14S,17R)-3-ethyl-17-((2S,3R)-3-hydroxy-6-methylheptan-2-yl)-10,13-dimethyl-2,3,4,7,8,9,10,11,12,13,14,15,16,17-tetradecahydro-1H-cyclopenta[a]phenanthren-3-ol] | > 1000 | < 100 | > 1000 | < 100 | – | – | –
CC(C)CC[C@H](O)[C@@H](C)[C@H]1CC[C@H]2[C@@H]3CC=C4C[C@@](C)(O)CC[C@]4(C)[C@H]3CC[C@]12C [Compound 75, (3S,8S,9S,10R,13S,14S,17R)-17-((2S,3S)-3-hydroxy-6-methylheptan-2-yl)-3,10,13-trimethyl-2,3,4,7,8,9,10,11,12,13,14,15,16,17-tetradecahydro-1H-cyclopenta[a]phenanthren-3-ol] | > 1000 | < 100 | > 1000 | < 100 | – | – | –
CC[C@]1(O)CC[C@@]2(C)C(=CC[C@H]3[C@@H]4CC[C@H]([C@H](C)[C@@H](O)CCC(C)C)[C@@]4(C)CC[C@@H]32)C1 [Compound 77, (3S,8S,9S,10R,13S,14S,17R)-3-ethyl-17-((2S,3S)-3-hydroxy-6-methylheptan-2-yl)-10,13-dimethyl-2,3,4,7,8,9,10,11,12,13,14,15,16,17-tetradecahydro-1H-cyclopenta[a]phenanthren-3-ol] | > 1000 | < 100 | > 1000 | < 100 | – | – | –
